Where a SMILES comes first, the peptide text is derived from it.
The compounds below were run on HPV16-positive cells (assay: Cytotoxicity assay (VITAL FR / live-cell imaging-based) with peptide-specific CD8+ T cells). Settings: HLA restriction A02.
Design: species or system human; key: +: cytotox: Ability of peptide-specific T cells to kill HPV16-positive cells.; +*: *highlights data from published resources.; *highlights data from published resources
Method: The flow cytometry based VITAL FR cytotoxicity assay was used as published by Stanke et al. (Stanke et al., 2010) to assess whether peptide-specific T cells are able to specifically kill HPV-transformed target cells. Briefly, two HLA-A2+ cell lines, a HPV16-negative (HPV16−) control cell line (C33A) and a HPV16-positive (HPV16+) target cell line (CaSki) were fluorescently labeled with either FarRed or CFSE and were co-incubated with peptide-specific CD8+ T cells as effector cells. After 48 h co-incubation, the fluorescently labeled cells were analyzed by flow cytometry to determine the surviving cells and calculate the specific cytolytic function of the effector cells by the ratio of target and control cells.
CaSki and C33A cells were fluorescently labeled with CFSE and FarRed, respectively. Cells of both cell lines were harvested and resuspended in plain RPMI medium at a concentration of 1×10^6 cells/mL. For cell labeling, 5 μM CSFE were added to CaSki cells and 0.25 μM FarRed were added to C33A cells. The cells were incubated at 37° C. and the reaction was stopped after 10 min by addition of 50 mL RPMI with 10% FBS. The cells were centrifuged at 300×g for 5 min, the supernatant was discarded and the cells were resuspended in their cell culture medium. The labeled cells were seeded in T25 cell culture flasks with 1-2×10^6 cells/flask.
On the next day, the labeled CaSki and C33A as well as the epitope-specific semi-long-term T cell lines (described in 1.6) were harvested. CD8+ T cells were isolated from the epitope-specific semi-long-term T cell lines using the MACS CD8+ T cell isolation kit (Miltenyi Biotec) according to the manufacturer's protocol for LS columns. The CD8+ T cells were resuspended in T cell medium and added to wells of a F-bottom 96-well plate in serial dilutions to achieve triplicates of 6×10^4, 3×10^4, 1.5×10^4, 0.75×10^4 and 0.375×10^4 cells per well. The CaSki and C33A cells were mixed 1:1 in T cell medium and 3×10^3 cells were added to each well containing T cells. Thereby effector:target (E:T) ratios of […] were achieved. Additionally, triplicates of mixed target cells without T cells were seeded, which is referred to as E:T 0. After 48 h incubation at 37° C., 5% C02, the cells were harvested and analyzed at a BD FACS Canto™ II analyzer using the BD FACS Diva Software Version 6. The obtained data were analyzed with the FlowJo software Version 10 by applying the same gating strategy to all samples. Subsequently, the equations (1) and (2) given below were applied in Excel (Microsoft Office 2016) to calculate specific killing.
Semi long-term T cell lines were set up to obtain high numbers of T cells, which are required for the analysis of epitope specific cytotoxic T cell responses in VITAL FR cytotoxicity assays. Autologous DCs were generated from PBMCs as described in 1.7 and loaded with the desired HPV16 peptide. PBMCs of the same donor were thawed and resuspended in T cell medium supplemented with rhIL-7 (10 ng/mL) and rhIL-15 (20 ng/mL). 1×10^7 PBMCs/well were seeded to a 24-well plate in a total volume of 1 mL/well. Peptide-loaded DCs were added in a ratio of 50:1 (PBMCs:DCs) in 1 mL rhIL-7 (10 ng/mL) and rhIL-15 (20 ng/mL) supplemented T cell medium to achieve a final volume of 2 mL. The cell cultures were fed with rhIL-2 (final concentration: 40 U/mL) every other day. If the medium turned yellow the feeding was combined with a half medium change with 1 mL fresh IL-2 supplemented T cell medium. After eight days, the peptide stimulation with peptide-loaded DCs was repeated and cultivation was continued. On day 15, the T cell lines were harvested and used for CD8+ T cell isolation and cytotoxicity assays.
In addition to the VITAL FR assay described herein above, a newly established live-cell imaging-based cytotoxicity assay was applied. […]
CSCC[C@H](N)C(=O)N[C@@H](CC(C)C)C(=O)N[C@@H](CC(=O)O)C(=O)N[C@@H](CC(C)C)C(=O)N[C@@H](CCC(N)=O)C(=O)N1CCC[C@H]1C(=O)N[C@@H](CCC(=O)O)C(=O)N[C@H](C(=O)O)[C@@H](C)O [compound 16] (H-MLDLQPET-OH) was tested, and the “cytotox: Ability of peptide-specific T cells to kill HPV16-positive cells” value (“cytotox: Ability” below) was “+”. With CC(C)C[C@H](NC(=O)[C@@H](N)CCCNC(=N)N)C(=O)N[C@@H](CS)C(=O)N[C@H](C(=O)N[C@@H](CCC(N)=O)C(=O)N[C@@H](CO)C(=O)N[C@H](C(=O)N[C@@H](Cc1c[nH]cn1)C(=O)N[C@H](C(=O)O)C(C)C)[C@@H](C)O)C(C)C [compound 17] (H-RLCVQSTHV-OH) the “cytotox: Ability” value was “+”. With CSCC[C@H](NC(=O)[C@H](CC(C)C)NC(=O)[C@H](CC(C)C)NC(=O)[C@H](CC(=O)O)NC(=O)[C@H](CCC(=O)O)NC(=O)[C@H](CC(C)C)NC(=O)[C@@H](NC(=O)[C@@H](N)CCCNC(=N)N)[C@@H](C)O)C(=O)NCC(=O)N[C@H](C(=O)N[C@@H](CC(C)C)C(=O)O)[C@@H](C)O [compound 19] (H-RTLEDLLMGTL-OH) the “cytotox: Ability” value was “+”. CC[C@H](C)[C@H](NC(=O)CNC(=O)[C@H](CC(C)C)NC(=O)[C@@H](NC(=O)CNC(=O)[C@H](CCSC)NC(=O)[C@H](CC(C)C)NC(=O)[C@H](CC(C)C)NC(=O)[C@H](CC(=O)O)NC(=O)[C@@H](N)CCC(=O)O)[C@@H](C)O)C(=O)N[C@H](C(=O)O)C(C)C [compound 21] (H-EDLLMGTLGIV-OH) was tested, and the “cytotox: Ability” value was “+”. CC[C@H](C)[C@H](NC(=O)[C@@H]1CCCN1C(=O)[C@H](CS)NC(=O)[C@@H](NC(=O)[C@@H](NC(=O)CNC(=O)[C@H](CC(C)C)NC(=O)[C@@H](NC(=O)CNC(=O)[C@H](CCSC)NC(=O)[C@@H](N)CC(C)C)[C@@H](C)O)[C@@H](C)CC)C(C)C)C(=O)O [compound 25] (H-LMGTLGIVCPI-OH) was tested, and the “cytotox: Ability” value was “+”. In the case of CSCC[C@H](NC(=O)[C@@H](N)Cc1ccc(O)cc1)C(=O)N[C@@H](CC(C)C)C(=O)N[C@@H](CC(=O)O)C(=O)N[C@@H](CC(C)C)C(=O)N[C@@H](CCC(N)=O)C(=O)N1CCC[C@H]1C(=O)N[C@@H](CCC(=O)O)C(=O)O [compound 32] (H-YMLDLQPE-OH), the “cytotox: Ability” value is reported as “+”. In the case of CC[C@H](C)[C@H](NC(=O)[C@@H]1CCCN1C(=O)[C@H](CS)NC(=O)[C@@H](NC(=O)[C@@H](NC(=O)CNC(=O)[C@H](CC(C)C)NC(=O)[C@@H](NC(=O)CNC(=O)[C@@H](N)CCSC)[C@@H](C)O)[C@@H](C)CC)C(C)C)C(=O)O [compound 33] (H-MGTLGIVCPI-OH), the “cytotox: Ability” value is reported as “+”. CC[C@H](C)[C@H](NC(=O)CNC(=O)[C@H](CC(C)C)NC(=O)[C@@H](NC(=O)CNC(=O)[C@H](CCSC)NC(=O)[C@H](CC(C)C)NC(=O)[C@@H](N)CC(C)C)[C@@H](C)O)C(=O)N[C@H](C(=O)N[C@@H](CS)C(=O)N1CCC[C@H]1C(=O)O)C(C)C [compound 44] (H-LLMGTLGIVCP-OH) was tested, and the “cytotox: Ability” value was “+”. With CC[C@H](C)[C@H](NC(=O)[C@H](CC(=O)O)NC(=O)[C@H](Cc1c[nH]cn1)NC(=O)[C@@H](NC(=O)[C@@H](NC(=O)[C@@H](N)[C@@H](C)O)[C@@H](C)O)[C@@H](C)CC)C(=O)N[C@H](C(=O)N[C@@H](CC(C)C)C(=O)N[C@@H](CCC(=O)O)C(=O)N[C@@H](CS)C(=O)N[C@H](C(=O)O)C(C)C)[C@@H](C)CC [compound 49] (H-TTIHDIILECV-OH) the “cytotox: Ability” value was “+”. For CC[C@H](C)[C@H](N)C(=O)N[C@@H](CCCNC(=N)N)C(=O)N[C@H](C(=O)N[C@@H](CC(C)C)C(=O)N[C@@H](CCC(=O)O)C(=O)N[C@@H](CC(=O)O)C(=O)N[C@@H](CC(C)C)C(=O)N[C@@H](CC(C)C)C(=O)N[C@@H](CCSC)C(=O)NCC(=O)N[C@H](C(=O)O)[C@@H](C)O)[C@@H](C)O [compound 52] (H-IRTLEDLLMGT-OH), the “cytotox: Ability” value was “+”.

Same assay, conditions: HLA restriction A24
With “83 (TFCCKCDSTL; Human papillomavirus 16) [compound 83]” the “cytotox: Ability” value was “+”.

The compounds below were run on short-term antigen-specific T cell lines generated from PBMCs (assay: Interferon-γ ELISpot assay on short-term antigen-specific T cell lines). Settings: HLA restriction A24.
Type: cell-based, human
For “83 (TFCCKCDSTL; Human papillomavirus 16) [compound 83]”, the “ELISpot: Immungenicity of the peptide shown by IFN-gamma ELISPOT analysis” value was “+”.
